From paper PMC6010129, “Evaluation of sulphonamide derivatives acting as inhibitors of human carbonic anhydrase isoforms I, II and Mycobacterium tuberculosisβ-class enzyme Rv3273” (Journal of Enzyme Inhibition and Medicinal Chemistry, 2018)

Assays:
[1] = target: T1, hCA I (Homo sapiens, UniProt P00915); assay: stopped-flow CO2 hydrase assay; format: biochemical
T1 construct: gene CA1; cytosolic isoform
Excerpt: stopped-flow CO2 hydrase assay on hCA I

[2] = target: T2, hCA II (Homo sapiens, UniProt P00918); assay: stopped-flow CO2 hydrase assay; format: biochemical
T2 construct: gene CA2; cytosolic isoform
Excerpt: stopped-flow CO2 hydrase assay on hCA II

[3] = target: T3, mtCA 3 (Mycobacterium tuberculosis, UniProt P96878); assay: biochemical; set-up: stopped-flow CO2 hydration assay, phenol red absorbance at 557 nm, 15 min pre-incubation, Ki by Cheng-Prusoff
T3 construct: beta-class carbonic anhydrase
Method: An Sx.18Mv-R Applied Photophysics (Oxford, UK) stopped-flow instrument has been used to assay the catalytic activity of various CA isozymes for CO2 hydration reaction. Phenol red (at a concentration of 0.2 mM) was used as indicator, working at the absorbance maximum of 557 nm, with 10 mM Hepes (pH 7.5) or 10 mM Tris (pH 8.5) as buffers, and 0.1 M Na2SO4 (for maintaining constant ionic strength, which is not inhibitory against these enzymes), following the CA-catalysed CO2 hydration reaction for a period of 10 s at 25 °C. The CO2 concentrations ranged from 1.7 to 17 mM for the determination of the kinetic parameters and […]. For each inhibitor at least six traces of the initial 5–10% of the reaction have been used for determining the initial rate. The uncatalysed rates were determined in the same manner and subtracted from the total observed rates. Stock solutions of inhibitors (10 mM) were prepared in distilled-deionised […] to 1 nM using the assay buffer. Inhibitor and enzyme solutions were pre-incubated together for 15 min (standard assay at room temperature) prior to assay, in order to allow for the formation of the enzyme–inhibitor complex. The inhibition constant (KI), was obtained by considering the classical Michaelis–Menten equation and the Cheng-Prusoff algorithm by using non-linear least squares fitting as reported earlier. The compounds 5 and 6 reported here were investigated as inhibitors of three CAs involved in crucial physiologic processes and known to act as drug targets, i.e. the human (h) isoforms hCA I and II (belonging to the α-CA class) and the bacterial enzyme mtCA3 from Mycobacterium tuberculosis (a β-class CA) (Table 3). Acetazolamide (AAZ), a clinically used sulphonamide has been employed as standard inhibitor in the assay.

T1 sequence (P00915 2-261): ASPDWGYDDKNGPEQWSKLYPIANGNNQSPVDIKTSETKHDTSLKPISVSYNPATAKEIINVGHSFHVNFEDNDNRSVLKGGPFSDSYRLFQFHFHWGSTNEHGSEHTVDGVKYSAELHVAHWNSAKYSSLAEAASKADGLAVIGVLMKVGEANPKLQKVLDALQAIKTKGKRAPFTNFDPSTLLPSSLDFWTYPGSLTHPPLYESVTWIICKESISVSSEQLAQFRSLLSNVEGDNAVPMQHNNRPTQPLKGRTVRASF
T3 sequence (P96878 entry or part of it): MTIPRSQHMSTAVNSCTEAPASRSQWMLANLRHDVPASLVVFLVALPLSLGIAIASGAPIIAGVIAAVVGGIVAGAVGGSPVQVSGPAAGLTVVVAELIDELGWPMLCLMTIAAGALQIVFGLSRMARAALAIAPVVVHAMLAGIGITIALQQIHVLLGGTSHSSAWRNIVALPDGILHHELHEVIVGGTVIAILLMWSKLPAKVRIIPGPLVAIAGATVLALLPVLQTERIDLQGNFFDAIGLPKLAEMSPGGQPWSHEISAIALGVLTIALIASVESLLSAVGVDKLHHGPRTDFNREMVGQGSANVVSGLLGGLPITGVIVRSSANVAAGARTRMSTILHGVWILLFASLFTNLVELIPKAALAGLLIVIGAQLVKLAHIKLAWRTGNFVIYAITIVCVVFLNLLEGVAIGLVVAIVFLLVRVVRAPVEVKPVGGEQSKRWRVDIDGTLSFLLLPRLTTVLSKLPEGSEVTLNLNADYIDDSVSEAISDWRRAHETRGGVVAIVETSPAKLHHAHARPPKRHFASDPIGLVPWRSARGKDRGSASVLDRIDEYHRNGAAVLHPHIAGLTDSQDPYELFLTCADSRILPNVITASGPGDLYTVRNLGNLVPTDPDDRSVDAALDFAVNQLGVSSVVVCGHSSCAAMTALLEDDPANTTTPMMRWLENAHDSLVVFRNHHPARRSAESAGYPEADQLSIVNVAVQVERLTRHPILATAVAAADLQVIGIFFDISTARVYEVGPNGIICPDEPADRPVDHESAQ

**Q.** Which results are given for `NS(=O)(=O)c1ccc(NCC(=O)N/N=C/c2ccc(O)cc2)cc1` [6g, 4-((2-(2-(4-Hydroxybenzylidene)hydrazinyl)-2-oxoethyl)amino) benzenesulphonamide]?
**A.** Ki [1]: 327 nM; Ki [2]: 255 nM

**Q.** Which Ki [1] does the source give for `COc1ccc(/C=N/NC(=O)CNc2ccc(S(N)(=O)=O)cc2)cc1OC` [6e, 4-((2-(2-(3,4-Dimethoxybenzylidene)hydrazinyl)-2-oxoethyl)amino) benzenesulphonamide] here?
**A.** 1800 nM

**Q.** And the Ki [2]?
**A.** 758 nM

**Q.** For `NS(=O)(=O)c1ccc(NCC(=O)N2N=C(c3ccc(Cl)cc3)CC2c2ccc(Br)cc2)cc1` (stereo not drawn) [5c, 4-((2-(3-(4-Chlorophenyl)-5-(4-bromophenyl)-4,5-dihydro-1H-pyrazol-1-yl)-2-oxoethyl)amino) benzenesulphonamide], which Ki [3] is on record?
**A.** 732 nM

**Q.** What about the Ki [1] of the same molecule?
**A.** 634 nM

**Q.** What about the Ki [2] of the same molecule?
**A.** 2850 nM

**Q.** How did the Ki [3] turn out when `COc1ccc(C2CC(c3ccc(Cl)cc3)=NN2C(=O)CNc2ccc(S(N)(=O)=O)cc2)cc1OC` (stereo not drawn) [5h, 4-((2-(3-(4-Chlorophenyl)-5-(3,4-dimethoxyphenyl)-4,5-dihydro-1H-pyrazol-1-yl)-2-oxoethyl)amino)benzenesulphonamide] was run?
**A.** 186 nM

**Q.** And the Ki [1]?
**A.** 280 nM

**Q.** What about the Ki [2] of the same molecule?
**A.** 424 nM

**Q.** `NS(=O)(=O)c1ccc(NCC(=O)N2N=C(c3ccc(Cl)cc3)CC2c2ccc(F)cc2)cc1` (stereo not drawn) [5b, 4-((2-(3-(4-Chlorophenyl)-5-(4-fluorophenyl)-4,5-dihydro-1H-pyrazol-1-yl)-2-oxoethyl)amino) benzenesulphonamide] was tested. Which Ki [1] did it give?
**A.** 441 nM

**Q.** And the Ki [2]?
**A.** 500 nM

**Q.** How did the Ki [3] turn out when `CC1=NN(C(=O)CNc2ccc(S(N)(=O)=O)cc2)C(c2ccccc2Cl)C1` (stereo not drawn) [5q, 4-((2-(5-(2-Chlorophenyl)-3-methyl-4,5-dihydro-1H-pyrazol-1-yl)-2-oxoethyl)amino)benzenesulphonamide] was run?
**A.** 623 nM

**Q.** And the Ki [1]?
**A.** 742 nM

**Q.** And the Ki [2]?
**A.** 648 nM

**Q.** With `NS(=O)(=O)c1ccc(NCC(=O)N/N=C/c2ccccc2O)cc1` [6c, 4-((2-(2-(2-Hydroxybenzylidene)hydrazinyl)-2-oxoethyl)amino) benzenesulphonamide] as the molecule, how does the Ki [3] read?
**A.** 2150 nM

**Q.** What about the Ki [1] of the same molecule?
**A.** 54.6 nM

**Q.** And the Ki [2]?
**A.** 32.1 nM

**Q.** For `COc1cc(/C=N/NC(=O)CNc2ccc(S(N)(=O)=O)cc2)cc(OC)c1OC` [6i, 4-((2-Oxo-2-(2-(3,4,5-trimethoxybenzylidene) hydrazinyl)ethyl)amino) benzenesulphonamide], which Ki [3] is on record?
**A.** 216 nM

**Q.** What about the Ki [1] of the same molecule?
**A.** 890 nM

**Q.** And the Ki [2]?
**A.** 446 nM

**Q.** How did the Ki [3] turn out when `NS(=O)(=O)c1ccc(NCC(=O)N2N=C(c3ccc(Cl)cc3)CC2c2c[nH]c3ccccc23)cc1` (stereo not drawn) [5k, 4-((2-(3-(4-Chlorophenyl)-5-(1H-indol-3-yl)-4,5-dihydro-1H-pyrazol-1-yl)-2-oxoethyl)amino)benzenesulphonamide] was run?
**A.** 127 nM

**Q.** And the Ki [1]?
**A.** 440 nM

**Q.** What about the Ki [2] of the same molecule?
**A.** 392 nM

**Q.** With `CC1=NN(C(=O)CNc2ccc(S(N)(=O)=O)cc2)C(c2ccc(C)cc2)C1` (stereo not drawn) [5o, 4-((2-(3-Methyl-5-(p-tolyl)-4,5-dihydro-1H-pyrazol-1-yl)-2-oxoethyl)amino)benzene sulphonamide] as the molecule, how does the Ki [3] read?
**A.** 275 nM

**Q.** What about the Ki [1] of the same molecule?
**A.** 898 nM

**Q.** What about the Ki [2] of the same molecule?
**A.** 3460 nM

**Q.** Which results are given for `NS(=O)(=O)c1ccc(NCC(=O)N2N=C(c3ccc(Cl)cc3)CC2c2c3ccccc3cc3ccccc23)cc1` (stereo not drawn) [5j, 4-((2-(5-(Anthracen-9-yl)-3-(4-chlorophenyl)-4,5-dihydro-1H-pyrazol-1-yl)-2-oxoethyl)amino)benzenesulphonamide]?
**A.** Ki [3]: 157 nM; Ki [1]: 91.8 nM; Ki [2]: 2020 nM

**Q.** `CC1=NN(C(=O)CNc2ccc(S(N)(=O)=O)cc2)C(c2ccccc2O)C1` (stereo not drawn) [5r, 4-((2-(5-(2-Hydroxyphenyl)-3-methyl-4,5-dihydro-1H-pyrazol-1-yl)-2-oxoethyl)amino)benzenesulphonamide] was tested. Which Ki [3] did it give?
**A.** 1590 nM

**Q.** What about the Ki [1] of the same molecule?
**A.** 721 nM

**Q.** What about the Ki [2] of the same molecule?
**A.** 83.1 nM

**Q.** Which results are given for `NS(=O)(=O)c1ccc(NCC(=O)N2N=C(c3ccc(Cl)cc3)CC2c2ccccc2O)cc1` (stereo not drawn) [5g, 4-((2-(3-(4-Chlorophenyl)-5-(2-hydroxyphenyl)-4,5-dihydro-1H-pyrazol-1-yl)-2-oxoethyl)amino)benzenesulphonamide]?
**A.** Ki [3]: 147 nM; Ki [1]: 174 nM; Ki [2]: 578 nM

**Q.** How did the Ki [3] turn out when `CC1=NN(C(=O)CNc2ccc(S(N)(=O)=O)cc2)C(c2ccc(Cl)cc2)C1` (stereo not drawn) [5n, 4-((2-(5-(4-Chlorophenyl)-3-methyl-4,5-dihydro-1H-pyrazol-1-yl)-2-oxoethyl)amino)benzenesulphonamide] was run?
**A.** 1290 nM

**Q.** And the Ki [1]?
**A.** 835 nM

**Q.** And the Ki [2]?
**A.** 944 nM

**Q.** For `COc1cccc(C=NNC(=O)CNc2ccc(S(N)(=O)=O)cc2)c1OC` [6j, 4-((2-(2-(2,3-Dimethoxybenzylidene)hydrazinyl)-2-oxoethyl)amino)benzenesulphonamide], which Ki [3] is on record?
**A.** 232 nM

**Q.** And the Ki [1]?
**A.** 785 nM

**Q.** And the Ki [2]?
**A.** 240 nM

**Q.** Which Ki [3] does the source give for `Cc1ccc(C=NNC(=O)CNc2ccc(S(N)(=O)=O)cc2)cc1` [6b, 4-((2-(2-(4-Methylbenzylidene) hydrazinyl)-2-oxoethyl)amino)benzene sulphonamide] here?
**A.** > 10000 nM

**Q.** And the Ki [1]?
**A.** 266 nM

**Q.** What about the Ki [2] of the same molecule?
**A.** 914 nM

**Q.** For `NS(=O)(=O)c1ccc(NCC(=O)N2N=C(c3ccc(Cl)cc3)CC2c2ccncc2)cc1` (stereo not drawn) [5e, 4-((2-(3-(4-Chlorophenyl)-5-(pyridin-4-yl)-4,5-dihydro-1H-pyrazol-1-yl)-2-oxoethyl)amino) benzenesulphonamide], which Ki [3] is on record?
**A.** 138 nM

**Q.** And the Ki [1]?
**A.** 175 nM

**Q.** What about the Ki [2] of the same molecule?
**A.** 42.3 nM

**Q.** How did the Ki [3] turn out when `COc1cc(/C=N/NC(=O)CNc2ccc(S(N)(=O)=O)cc2)cc(OC)c1O` [6h, 4-((2-(2-(4-Hydroxy-3,5-dimethoxybenzylidene)hydrazinyl)-2-oxoethyl)amino) benzenesulphonamide] was run?
**A.** 2000 nM

**Q.** And the Ki [1]?
**A.** 292 nM

**Q.** What about the Ki [2] of the same molecule?
**A.** 483 nM

**Q.** With `Cc1ccc(C2CC(c3ccc(Cl)cc3)=NN2C(=O)CNc2ccc(S(N)(=O)=O)cc2)cc1` (stereo not drawn) [5d, 4-((2-(3-(4-Chlorophenyl)-5-(4-methylphenyl)-4,5-dihydro-1H-pyrazol-1-yl)-2-oxoethyl)amino)benzenesulphonamide] as the molecule, how does the Ki [3] read?
**A.** 175 nM

**Q.** And the Ki [1]?
**A.** 93.4 nM

**Q.** What about the Ki [2] of the same molecule?
**A.** 426 nM

**Q.** What does the source list for `NS(=O)(=O)c1ccc(NCC(=O)N/N=C/c2ccccc2)cc1` [6a, 4-((2-(2-Benzylidenehydrazinyl)-2-oxoetehyl)amino) benzenesulphonamide]?
**A.** Ki [3]: > 10000 nM; Ki [1]: 220 nM; Ki [2]: 549 nM

**Q.** How did the Ki [3] turn out when `COc1ccc(C2CC(C)=NN2C(=O)CNc2ccc(S(N)(=O)=O)cc2)cc1` (stereo not drawn) [5m, 4-((2-(5-(4-Methoxyphenyl)-3-methyl-4,5-dihydro-1H-pyrazol-1-yl)-2-oxoethyl)amino)benzenesulphonamide] was run?
**A.** > 10000 nM

**Q.** What about the Ki [1] of the same molecule?
**A.** 2370 nM

**Q.** And the Ki [2]?
**A.** 5550 nM

**Q.** Which results are given for `CC1=NN(C(=O)CNc2ccc(S(N)(=O)=O)cc2)C(c2ccc(O)cc2)C1` (stereo not drawn) [5s, 4-((2(5-(4-Hydroxyphenyl)-3-methyl-4,5-dihydro-1H-pyrazol-1-yl)-2-oxoethyl)amino)benzenesulphonamide]?
**A.** Ki [3]: 265 nM; Ki [1]: 738 nM; Ki [2]: 73.6 nM

**Q.** With `COc1ccc(/C=N/NC(=O)CNc2ccc(S(N)(=O)=O)cc2)cc1` [6f, 4-((2-(2-(4-Methoxybenzylidene) hydrazinyl)-2-oxoethyl)amino) benzenesulphonamide] as the molecule, how does the Ki [3] read?
**A.** 2130 nM

**Q.** What about the Ki [1] of the same molecule?
**A.** 648 nM

**Q.** What about the Ki [2] of the same molecule?
**A.** 703 nM

**Q.** Which Ki [3] does the source give for `CC1=NN(C(=O)CNc2ccc(S(N)(=O)=O)cc2)C(c2ccccc2)C1` (stereo not drawn) [5l, 4-((2-(3-Methyl-5-phenyl-4,5-dihydro-1H-pyrazol-1-yl)-2-oxoethyl)amino) benzene sulphonamide] here?
**A.** 1580 nM

**Q.** What about the Ki [1] of the same molecule?
**A.** 760 nM

**Q.** And the Ki [2]?
**A.** 810 nM

**Q.** `CC1=NN(C(=O)CNc2ccc(S(N)(=O)=O)cc2)C(c2cccs2)C1` (stereo not drawn) [5u, 4-((2-(3-Methyl-5-(thiophen-2-yl)-4,5-dihydro-1H-pyrazol-1-yl)-2-oxoethyl)amino)benzenesulphonamide] was tested. Which Ki [3] did it give?
**A.** 1450 nM

**Q.** And the Ki [1]?
**A.** 798 nM

**Q.** And the Ki [2]?
**A.** 126 nM

**Q.** Which Ki [3] does the source give for `NS(=O)(=O)c1ccc(NCC(=O)N2N=C(c3ccc(Cl)cc3)CC2c2cccs2)cc1` (stereo not drawn) [5i, 4-((2-(3-(4-Chlorophenyl)-5-(thiophen-2-yl)-4,5-dihydro-1H-pyrazol-1-yl)-2-oxoethyl)amino)benzenesulphonamide] here?
**A.** 233 nM

**Q.** What about the Ki [1] of the same molecule?
**A.** 276 nM

**Q.** And the Ki [2]?
**A.** 373 nM

**Q.** Which results are given for `CC1=NN(C(=O)CNc2ccc(S(N)(=O)=O)cc2)C(c2ccc(N(C)C)cc2)C1` (stereo not drawn) [5t]?
**A.** Ki [3]: 1740 nM; Ki [1]: 842 nM; Ki [2]: 5150 nM

**Q.** With `NS(=O)(=O)c1ccc(NCC(=O)N/N=C/c2ccccn2)cc1` [6d, 4-((2-Oxo-2-(2-(pyridin-2-ylmethylene) hydrazinyl)ethyl)amino) benzenesulphonamide] as the molecule, how does the Ki [3] read?
**A.** > 10000 nM

**Q.** What about the Ki [1] of the same molecule?
**A.** 316 nM

**Q.** What about the Ki [2] of the same molecule?
**A.** 418 nM

**Q.** For `CC1=NN(C(=O)CNc2ccc(S(N)(=O)=O)cc2)C(c2ccc(F)cc2)C1` (stereo not drawn) [5p, 4-((2-(5-(4-Fluorophenyl)-3-methyl-4,5-dihydro-1H-pyrazol-1-yl)-2-oxoethyl)amino)benzenesulphonamide], which Ki [3] is on record?
**A.** 250 nM

**Q.** And the Ki [1]?
**A.** 665 nM

**Q.** And the Ki [2]?
**A.** 903 nM
